The subject of assay [1] is RS4;11 leukaemia tumour line. Nature of the assay: In vitro cytotoxicity, Microculture Tetrazolium Assay (MTT). The assay is classed as cell-based. As to conditions: Homo sapiens; RS4;11 cells, 48 hours exposure. The procedure:
The cytotoxicity studies were carried out on the RS4;11 leukaemia tumour line.
The cells are distributed onto microplates and exposed to the test compounds for 48 hours. The cell viability is then quantified by a colorimetric assay, the Microculture Tetrazolium Assay (Cancer Res., 1987, 47, 939-942).

For the next assay, the target named is Bcl-2 protein (histag-Bcl-2, UniProtKB P10415) (Homo sapiens (Human), UniProt P10415). Nature of the assay: Inhibition of Bcl-2 by the fluorescence polarisation technique. The class given is binding. Conditions: fluorescence polarisation test; method A, or method B where underlined (underlining not visible); read-out: IC50 (nM) Bcl-2 FP. An excerpt:
Inhibition of Bcl-2 by the fluorescence polarisation technique

Structures can show the parent of a compound that is named as a salt.

Bcl-2 protein, sequence (P10415 whole entry): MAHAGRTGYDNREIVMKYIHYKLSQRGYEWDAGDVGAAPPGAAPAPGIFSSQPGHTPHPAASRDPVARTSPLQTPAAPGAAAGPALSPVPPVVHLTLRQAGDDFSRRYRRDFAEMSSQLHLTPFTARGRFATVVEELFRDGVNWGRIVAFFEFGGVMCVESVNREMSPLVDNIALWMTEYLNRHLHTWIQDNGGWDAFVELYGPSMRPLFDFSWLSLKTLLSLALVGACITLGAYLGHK

As to `Cc1cc(C(=O)N(c2ccc(O)cc2)c2ccc3c(ccn3C)c2)cn1-c1cc(Br)ccc1C(=O)N1Cc2ccccc2C[C@H]1CN1CCN(C)CC1` [Example 70, 1-(5-Bromo-2-{[(3S)-3-[(4-methylpiperazin-1-yl)methyl]-3,4-dihydroisoquinolin-2(1H)-yl]carbonyl}phenyl)-N-(4-hydroxyphenyl)-5-methyl-N-(1-methyl-1H-indol-5-yl)-1H-pyrrole-3-carboxamide hydrochloride], the IC50 was found to be 63.8 nM in assay [1] and 2.9 nM at Bcl-2 protein.
On the same counts, the results for `CN1CCN(C[C@@H]2Cc3ccccc3CN2C(=O)c2ccc(Br)cc2-n2cc(C(=O)N(c3ccc(O)cc3)c3ccc(F)cc3)c3ccccc32)CC1` [Example 71, 1-(5-Bromo-2-{[(3S)-3-[(4-methylpiperazin-1-yl)methyl]-3,4-dihydroisoquinolin-2(1H)-yl]carbonyl}phenyl)-N-(4-fluorophenyl)-N-(4-hydroxyphenyl)-1H-indole-3-carboxamide] are 196 nM and 8.3 nM.
Consider `CN1CCN(C[C@@H]2Cc3ccccc3CN2C(=O)c2ccc(Cl)cc2-n2cc(C(=O)N(c3ccc(O)cc3)c3ccc4[nH]ccc4c3)c3ccccc32)CC1` [Example 72, 1-(5-Chloro-2-{[(3S)-3-[(4-methylpiperazin-1-yl)methyl]-3,4-dihydroisoquinolin-2(1H)-yl]carbonyl}phenyl)-N-(4-hydroxyphenyl)-N-(1H-indol-5-yl)-1H-indole-3-carboxamide], for which the figures for the 50% inhibitory concentration (IC50) (in assay [1]; at Bcl-2 protein) were 43.4 nM and 4.5 nM, respectively.
On the same counts, the results for `CN1CCN(C[C@@H]2Cc3ccccc3CN2C(=O)c2ccc(Cl)cc2-n2cc(C(=O)N(c3ccc(O)cc3)c3ccc(O)cc3)c3ccccc32)CC1` [Example 73, 1-(5-Chloro-2-{[(3S)-3-[(4-methylpiperazin-1-yl)methyl]-3,4-dihydroisoquinolin-2(1H)-yl]carbonyl}phenyl)-N,N-bis(4-hydroxyphenyl)-1H-indole-3-carboxamide] are 51.4 nM and 3.9 nM.
On the same counts, the results for `Cc1ccc(N(C(=O)c2cn(-c3cc(Cl)ccc3C(=O)N3Cc4ccccc4C[C@H]3CN3CCN(C)CC3)c3ccccc23)c2ccc(O)cc2)cc1` [Example 74, 1-(5-Chloro-2-{[(3S)-3-[(4-methylpiperazin-1-yl)methyl]-3,4-dihydroisoquinolin-2(1H)-yl]carbonyl}phenyl)-N-(4-hydroxyphenyl)-N-(4-methylphenyl)-1H-indole-3-carboxamide] are 162 nM and 4.2 nM.
On the same counts, the results for `CN1CCN(C[C@@H]2Cc3ccccc3CN2C(=O)c2ccc(Cl)cc2-n2cc(C(=O)N(c3ccc(O)cc3)c3ccc(F)cc3)c3ccccc32)CC1` [Example 75, 1-(5-Chloro-2-{[(3S)-3-[(4-methylpiperazin-1-yl)methyl]-3,4-dihydroisoquinolin-2(1H)-yl]carbonyl}phenyl)-N-(4-fluorophenyl)-N-(4-hydroxyphenyl)-1H-indole-3-carboxamide] are 184 nM and 7.1 nM.
In the case of `CN1CCN(C[C@@H]2Cc3ccccc3CN2C(=O)c2ccc(Cl)cc2-n2cc(C(=O)N(c3ccc(O)cc3)c3ccc(Cl)cc3)c3ccccc32)CC1` [Example 76, 1-(5-Chloro-2-{[(3S)-3-[(4-methylpiperazin-1-yl)methyl]-3,4-dihydroisoquinolin-2(1H)-yl]carbonyl}phenyl)-N-(4-chlorophenyl)-N-(4-hydroxyphenyl)-1H-indole-3-carboxamide], the results for the IC50 (in assay [1]; at Bcl-2 protein) were 151 nM and 8.7 nM, respectively.
The corresponding values for `Cc1cc(C(=O)N(c2ccc(O)cc2)c2ccc3c(ccn3C)c2)cn1-c1cc(Cl)c(F)cc1C(=O)N1Cc2ccccc2C[C@H]1CN1CCN(C)CC1` [Example 77, 1-(5-Chloro-4-fluoro-2-{[(3S)-3-[(4-methylpiperazin-1-yl)methyl]-3,4-dihydroisoquinolin-2(1H)-yl]carbonyl}phenyl)-N-(4-hydroxyphenyl)-5-methyl-N-(1-methyl-1H-indol-5-yl)-1H-pyrrole-3-carboxamide hydrochloride] are 207 nM and 4.9 nM.
On to `CN1CCN(C[C@@H]2Cc3ccccc3CN2C(=O)c2cc(F)c(Cl)cc2-n2cc(C(=O)N(c3ccc(O)cc3)c3ccc4c(ccn4C)c3)c3ccccc32)CC1` [Example 78, 1-(5-Chloro-4-fluoro-2-{[(3S)-3-[(4-methylpiperazin-1-yl)methyl]-3,4-dihydroisoquinolin-2(1H)-yl]carbonyl}phenyl)-N-(4-hydroxyphenyl)-N-(1-methyl-1H-indol-5-yl)-1H-indole-3-carboxamide hydrochloride], for which the IC50 in assay [1] was 81.4 nM; at Bcl-2 protein, 3.7 nM.
In the case of `Cc1cc(C(=O)N(c2ccc(O)cc2)c2ccc3[nH]ccc3c2)cn1-c1cc(Br)ccc1C(=O)N1Cc2ccccc2C[C@H]1CN1CCC(F)(F)CC1` [Example 79, 1-(5-Bromo-2-{[(3S)-3-[(4,4-difluoropiperidin-1-yl)methyl]-3,4-dihydroisoquinolin-2(1H)-yl]carbonyl}phenyl)-N-(4-hydroxyphenyl)-N-(1H-indol-5-yl)-5-methyl-1H-pyrrole-3-carboxamide], the IC50 in assay [1] is 344 nM; on Bcl-2 protein it was 85.5 nM.
The corresponding values for `Cc1cc(C(=O)N(c2ccc(O)cc2)c2ccc3[nH]ccc3c2)cn1-c1cc(Br)ccc1C(=O)N1Cc2ccccc2C[C@H]1CN1CCN(C2CCCC2)CC1` [Example 80, 1-(5-Bromo-2-{[(3S)-3-[(4-cyclopentylpiperazin-1-yl)methyl]-3,4-dihydroisoquinolin-2(1H)-yl]carbonyl}phenyl)-N-(4-hydroxyphenyl)-N-(1H-indol-5-yl)-5-methyl-1H-pyrrole-3-carboxamide] are 120 nM and 6.8 nM.
The corresponding values for `CN1CCN(C[C@@H]2Cc3ccccc3CN2C(=O)c2cc3c(cc2-n2cc(C(=O)N(c4ccc(O)c(Cl)c4)c4ccc5c(ccn5C)c4)c4ccccc42)OCO3)CC1` [Example 81, N-(3-Chloro-4-hydroxyphenyl)-N-(1-methyl-1H-indol-5-yl)-1-(6-{[(3S)-3-[(4-methylpiperazin-1-yl)methyl]-3,4-dihydroisoquinolin-2(1H)-yl]carbonyl}-1,3-benzodioxol-5-yl)-1H-indole-3-carboxamide hydrochloride] are 652 nM and 83.8 nM.
The corresponding values for `CN1CCN(C[C@@H]2Cc3ccccc3CN2C(=O)c2cc3c(cc2-n2cc(C(=O)N(c4ccc(O)c(Cl)c4)c4ccc5[nH]ccc5c4)c4ccccc42)OCO3)CC1` [Example 82, N-(3-Chloro-4-hydroxyphenyl)-N-(1H-indol-5-yl)-1-(6-{[(3S)-3-[(4-methylpiperazin-1-yl)methyl]-3,4-dihydroisoquinolin-2(1H)-yl]carbonyl}-1,3-benzodioxol-5-yl)-1H-indole-3-carboxamide hydrochloride] are 373 nM and 17.6 nM.
`Cc1cc(C(=O)N(c2ccc(O)cc2)c2ccc(O)cc2)cn1-c1cc2c(cc1C(=O)N1Cc3ccccc3C[C@H]1CN1CCN(C)CC1)OCO2` [Example 83, N,N-bis(4-Hydroxyphenyl)-5-methyl-1-(6-{[(3S)-3-[(4-methylpiperazin-1-yl)methyl]-3,4-dihydroisoquinolin-2(1H)-yl]carbonyl}-1,3-benzodioxol-5-yl)-1H-pyrrole-3-carboxamide]: the IC50 in assay [1] worked out at 350 nM; on Bcl-2 protein it was 3.7 nM.
On the same counts, the results for `Cc1cc(C(=O)N(c2ccc(O)cc2)c2ccc(F)cc2)cn1-c1cc2c(cc1C(=O)N1Cc3ccccc3C[C@H]1CN1CCN(C)CC1)OCO2` [Example 84, N-(4-Fluorophenyl)-N-(4-hydroxyphenyl)-5-methyl-1-(6-{[(3S)-3-[(4-methylpiperazin-1-yl)methyl]-3,4-dihydroisoquinolin-2(1H)-yl]carbonyl}-1,3-benzodioxol-5-yl)-1H-pyrrole-3-carboxamide] are 146 nM and 6.7 nM.
The corresponding values for `Cc1cc(C(=O)N(c2ccc(O)cc2)c2ccc(Cl)cc2)cn1-c1cc2c(cc1C(=O)N1Cc3ccccc3C[C@H]1CN1CCN(C)CC1)OCO2` [Example 85, N-(4-Chlorophenyl)-N-(4-hydroxyphenyl)-5-methyl-1-(6-{[(3S)-3-[(4-methylpiperazin-1-yl)methyl]-3,4-dihydroisoquinolin-2(1H)-yl]carbonyl}-1,3-benzodioxol-5-yl)-1H-pyrrole-3-carboxamide] are 129 nM and 3.7 nM.
With `Cc1cc(C(=O)N(c2ccc(O)cc2)c2ccc3[nH]ccc3c2)cn1-c1cc(Cl)ccc1C(=O)N1Cc2ccccc2C[C@H]1CN1CCN(C)CC1` [Example 86, 1-(5-Chloro-2-{[(3S)-3-[(4-methylpiperazin-1-yl)methyl]-3,4-dihydroisoquinolin-2(1H)-yl]carbonyl}phenyl)-N-(4-hydroxyphenyl)-N-(1H-indol-5-yl)-5-methyl-1H-pyrrole-3-carboxamide], the IC50 in assay [1] came to 67.7 nM; on Bcl-2 protein, 5.4 nM.
The corresponding values for `Cc1cc(C(=O)N(c2ccc(O)cc2)c2ccc3[nH]ccc3c2)cn1-c1cc2c(cc1C(=O)N1Cc3ccccc3C[C@H]1CN1CCN(C)CC1)OCO2` [Example 87, N-(4-Hydroxyphenyl)-N-(1H-indol-5-yl)-5-methyl-1-(6-{[(3S)-3-[(4-methylpiperazin-1-yl)methyl]-3,4-dihydroisoquinolin-2(1H)-yl]carbonyl}-1,3-benzodioxol-5-yl)-1H-pyrrole-3-carboxamide] are 138 nM and 4.4 nM.
The corresponding values for `CN1CCN(C[C@@H]2Cc3ccccc3CN2C(=O)c2cc3c(cc2-n2cc(C(=O)N(c4ccc(O)cc4)c4ccc5[nH]ccc5c4)c4cc(Cl)ccc42)OCO3)CC1` [Example 88, 5-Chloro-N-(4-hydroxyphenyl)-N-(1H-indol-5-yl)-1-(6-{[(3S)-3-[(4-methylpiperazin-1-yl)methyl]-3,4-dihydroisoquinolin-2(1H)-yl]carbonyl}-1,3-benzodioxol-5-yl)-1H-indole-3-carboxamide] are 541 nM and 19.6 nM.

The values are drawn from US9765056B2, “Indole and pyrrole compounds, a process for their preparation and pharmaceutical compositions containing them” (LES LABORATOIRES SERVIER, priority 2013, dated 2017).
